The results in this text go back to PubChem BioAssay AID624254 (Broad Institute, 2012).

The source made the active and inactive calls. No rule for the calls is given here.

This test in a line: Luciferase light induction in v cholerae bh1651, agonist dose response, confirmatory (AID 624254). As to conditions: V. cholerae BH1651 luxOD47E, luciferase light induction, 6 h; at 50 µM (top of the series).
For the compound `CCCNC(=O)COC(=O)/C=C/c1ccc(C)o1`, the “activation (light increase)” value was “inactive”. The value for `CC(C)NC(=O)c1ccc(-c2cccc(C(F)(F)F)c2)o1` was “inactive”. Turning to `Cc1noc(C)c1NC(=O)Nc1cccc2c1O[C@H](CN(C)S(=O)(=O)c1cccs1)[C@H](C)CN([C@H](C)CO)C2=O`, the “activation (light increase)” value was “inactive”. The value for `CC(C)OC(=O)CSc1nnc(SCc2cccc3ccccc23)s1` was “inactive”; that for `CC(C)Oc1ccc(OCCCN2CCCCCC2)cc1` was “inactive”. The value for `Cc1ccccc1NS(=O)(=O)c1cn(C)cn1` was “inactive”; that for `CCOC(=O)C1CCCc2c1[nH]c1c(C(=O)O)cccc21` (stereo not given) was “inactive”. On to `Cc1ccc2cc(C(c3nnnn3C3CCCC3)N3CCN(c4ccc(F)cc4)CC3)c(=O)[nH]c2c1` (stereo not given), for which the “activation (light increase)” value is “inactive”.

Turning to `CC(=O)c1cccc(NC(=O)CSc2nc(=O)n(CCN3CCOCC3)c3c2CCCC3)c1`, the “activation (light increase)” value is “inactive”. The result for `Cc1ccc2nc(SCc3nnc(-c4ccccc4Br)o3)[nH]c2c1` reads “inactive”. The value for `CCCc1cc(Nc2ccccc2OCC)n2ncnc2n1` was “inactive”; that for `COc1ccc(OC)c(NC(=O)Nc2cccc(Cn3cccn3)c2)c1` was “inactive”; that for `Cc1ccc(S(=O)(=O)NCCC(=O)O)cc1` was “inactive”. In the case of `CC(C)(C)c1ccc(C(=O)OCC(=O)NC2CC2)cc1`, the “activation (light increase)” value is “inactive”. For `CC(=O)N1CCN(C(=O)c2cc(-c3ccc(Cl)s3)nc3ccccc23)CC1`, the “activation (light increase)” value is “inactive”. The value for `COc1ccc(CCNC(=O)C(=O)NCC2CCCN2S(=O)(=O)c2ccc(OC)cc2)cc1` (stereo not given) was “inactive”; that for `Cc1ccc(CN(Cc2cc3cc(C)ccc3[nH]c2=O)C(=O)N2CCOCC2)cc1` was “inactive”; that for `O=C(NCc1ccccn1)c1c(O)c2c([nH]c1=O)CCCC2` was “inactive”. The result for `C[C@H]1CN([C@@H](C)CO)C(=O)c2cccc(NC(=O)C3CC3)c2O[C@@H]1CN(C)S(=O)(=O)c1cccs1` reads “inactive”; that for `Cc1ccc(C(=O)N(C)CC(=O)Nc2ccc(N3CCOCC3)cc2)s1`, “inactive”. The result for `O=C(NCC1CCCO1)C1CCN(C(=O)c2ccc(Cl)cc2)CC1` (stereo not given) reads “inactive”. On to `Cc1noc(C)c1NC(=O)Nc1cccc2c1O[C@H](CN(C)S(=O)(=O)c1cccs1)[C@@H](C)CN([C@@H](C)CO)C2=O`, for which the “activation (light increase)” value is “inactive”. Take `COC(=O)c1cnn(-c2nc(-c3ccccc3)cs2)c1N`: the “activation (light increase)” value was “inactive”. The value for `COc1cc(NC(=O)CN2C(=O)NC(c3ccccc3)(c3ccccc3)C2=O)cc(OC)c1` was “inactive”; that for `CN(C)CC(C)(C)CNC(=O)c1cc(=O)c2ccccc2o1` was “inactive”. With `Cn1cnnc1SCCOc1ccc(Cl)cc1`, the “activation (light increase)” value is “inactive”. Regarding `NC(=O)c1nsc(C(=O)N(CC(=O)NCc2ccc(F)cc2)Cc2ccco2)c1N`, the “activation (light increase)” value was “inactive”.

Turning to `COc1ccc2[nH]c(=O)c(CN(C(=O)c3cccnc3)c3ccc(C)cc3)cc2c1`, the “activation (light increase)” value was “inactive”.

On to `COc1ccc(-c2nc(N)ncc2Oc2ccccc2Br)c(O)c1`, for which the “activation (light increase)” value is “inactive”.

On to `CC(=O)c1cccc(NC(=O)COC(=O)Cc2ccc(Cl)cc2)c1`, for which the “activation (light increase)” value is “inactive”. The result for `CCCCOc1ccc(NS(=O)(=O)c2cn(C)cn2)cc1` reads “inactive”. `CCC(=O)c1ccc(N2CCCCCC2)c(F)c1`: the “activation (light increase)” value was “inactive”. `CCCOC(=O)c1ccc(NC(=O)C2CCCO2)cc1` (stereo not given): the “activation (light increase)” value is “inactive”.

`CCN(C(=O)COc1ncnc2ccc(Br)cc12)C1CCS(=O)(=O)C1` (stereo not given): the “activation (light increase)” value is “inactive”. The value for `COc1ccccc1NC(=O)COc1ccc2c(c1)OCO2` was “inactive”.

With `O=[N+]([O-])c1ccc(S(=O)(=O)NCC(c2cccnc2)N2CCc3ccccc32)cc1` (stereo not given), the “activation (light increase)” value is “inactive”. For `Cc1cccc(-c2noc(CN(C(=O)C34CC5CC(CC(C5)C3)C4)C(C)C)n2)c1`, the “activation (light increase)” value is “inactive”. As to `CCCCn1nnnc1NCc1ccc(N(CC)CC)cc1`, the “activation (light increase)” value is “inactive”. In the case of `Cc1ccc(C)c(N2CCN(C(c3ccc(N(C)C)cc3)c3nnnn3C(C)(C)C)CC2)c1` (stereo not given), the “activation (light increase)” value is “inactive”. As for `C[C@@H]1CN([C@@H](C)CO)C(=O)c2cccc(NC(=O)Nc3ccc4c(c3)OCO4)c2O[C@H]1CN(C)S(=O)(=O)c1ccccc1`, the “activation (light increase)” value is “inactive”. As to `Cc1cc(C)cc(OC(=O)c2cccnc2)c1`, the “activation (light increase)” value was “inactive”.

In the case of `O=C(c1ccc2c(c1)OCO2)N(Cc1ccco1)C1(C(=O)NC2CCCCC2)CCCCC1`, the “activation (light increase)” value was “inactive”.

As to `COc1ccccc1NC(=O)COC(=O)c1oc2ccccc2c1C`, the “activation (light increase)” value is “inactive”. In the case of `O=c1oc2c(CN3CCOCC3)c(O)c(Cl)cc2c2c1CCC2`, the “activation (light increase)” value is “inactive”. In the case of `COc1cc2c(c(OC)c1OC)C(c1ccc(C)cc1)CC(=O)O2` (stereo not given), the “activation (light increase)” value is “inactive”. As for `Cc1cc(NC2CCCCC2)nc(-c2ccccc2O)n1`, the “activation (light increase)” value is “inactive”. The value for `COc1ccc(/C(N)=N/OC(=O)Cc2ccccc2OC)cc1` was “inactive”; that for `COc1ccc(Cl)cc1NC(=O)COC(=O)c1cc(C)oc1C` was “inactive”; that for `CCCNC(=O)COC(=O)/C=C/c1ccco1` was “inactive”.

On to `CCn1c(SCC(=O)OC2CCCCC2)nnc1-c1ccncc1`, for which the “activation (light increase)” value was “inactive”.

With `Cc1ccc(CN2C(=O)CCC2C(=O)NCCN(CC(C)C)CC(C)C)cc1` (stereo not given), the “activation (light increase)” value is “inactive”. For `O=C(Oc1ccnc2cc(Cl)ccc12)N1CCCCCC1`, the “activation (light increase)” value was “inactive”. The value for `c1cn2cc(CN3CCOCC3)nc2s1` was “inactive”; that for `CCc1ccc(OCCNC(=O)c2cccs2)cc1` was “inactive”. For `CCCOc1ccc(NS(=O)(=O)c2cn(C)cn2)cc1`, the “activation (light increase)” value was “inactive”. The result for `Cc1ccc(-c2cc(C(=O)N3N=C(C(F)F)CC3(O)C(F)F)c3ccccc3n2)cc1C` (stereo not given) reads “inactive”. The result for `CCN(CC1COc2ccccc2O1)C(=S)Nc1ccccc1` (stereo not given) reads “inactive”; that for `O=C(COC(=O)C1CCC1)Nc1ccc(Oc2ccccc2)cc1`, “inactive”. The value for `CSc1ccccc1NC(=O)COc1ccc(S(=O)(=O)N2CCCC2)cc1` was “inactive”. On to `Cc1cccc(C(=O)OCC(=O)NCC(C)C)c1O`, for which the “activation (light increase)” value is “inactive”. The result for `Cc1ccccc1OC(C)c1nc(-c2ccccc2)no1` (stereo not given) reads “inactive”. The result for `Cc1ccccc1OCC(=O)OCC(=O)N1CCCc2ccccc21` reads “inactive”; that for `O=C(Nc1nnc(-c2ccc(Br)cc2)o1)c1cccc(N2C(=O)CCC2=O)c1`, “inactive”. The value for `CCOC(=O)c1c(NC(=O)COC(=O)Cc2c[nH]c3ccccc23)sc(C(=O)N(C)C)c1C` was “inactive”.

Regarding `CC(=O)c1c(N2CCC(C(N)=O)CC2)nc(=S)n(-c2ccccc2)c1C`, the “activation (light increase)” value is “inactive”. The result for `CCCCOCC(O)CN1CCN(C(C)=O)CC1` (stereo not given) reads “inactive”. As for `Cc1ccc(C)c(C(=O)CN2C(=O)NC3(CCCCCC3)C2=O)c1`, the “activation (light increase)” value was “inactive”. The result for `Cn1c(=O)c2c(nc(SCCN3CCOCC3)n2Cc2cccc3ccccc23)n(C)c1=O` reads “inactive”; that for `O=C(c1cc(-c2cccs2)nn1-c1ccccc1)N1CCN(S(=O)(=O)c2ccccc2)CC1`, “inactive”. As for `C[C@@H]1CN([C@@H](C)CO)C(=O)c2cccc(NC(=O)C3CC3)c2O[C@@H]1CN(C)S(=O)(=O)c1cccs1`, the “activation (light increase)” value was “inactive”. With `COc1cc2c(cc1OC)C(c1ccc(C)cc1)NC(=O)C2` (stereo not given), the “activation (light increase)” value was “inactive”. With `Cc1ccc(S(=O)(=O)N(C)C[C@H]2Oc3c(NC(=O)Nc4ccc5c(c4)OCO5)cccc3C(=O)N([C@H](C)CO)C[C@@H]2C)cc1`, the “activation (light increase)” value is “inactive”. For the compound `COc1ccccc1NS(=O)(=O)c1cn(C)cn1`, the “activation (light increase)” value was “inactive”.

As to `CN(C)S(=O)(=O)c1cccc(NC(=O)COC(=O)c2ccc(Br)o2)c1`, the “activation (light increase)” value is “inactive”. The value for `COC(=O)[C@H]1C[C@H](C(=O)O)[C@@H](C)C1(C)C` was “inactive”; that for `Cc1ccc(C(=O)COc2cc(C)nc3nncn23)cc1` was “inactive”; that for `CCN(CC)S(=O)(=O)c1cccc(C(=O)OCC(=O)C23CC4CC(CC(C4)C2)C3)c1` was “inactive”. As to `Cc1ccc(NS(=O)(=O)c2cn(C)cn2)cc1`, the “activation (light increase)” value was “inactive”. The value for `CC(C)c1ccc(C(=O)OCC(=O)NC2CCCC2)cc1` was “inactive”; that for `C=CCN1C(=O)c2ccc(C(=O)N(CC)CC(=O)Nc3cc(Cl)ccc3C)cc2C1=O` was “inactive”; that for `COc1cccc(Nc2nc(NCCO)c3ccccc3n2)c1` was “inactive”.

Consider `COc1ccc2[nH]c(=O)c(CNc3ccc(C)c(C)c3)cc2c1`, for which the “activation (light increase)” value is “inactive”.

With `CCCS(=O)(=O)N1CCCC(C(=O)NCc2ccc(C)cc2)C1` (stereo not given), the “activation (light increase)” value is “inactive”.

On to `O=C(O)c1cn[nH]c1-n1cnnn1`, for which the “activation (light increase)” value was “inactive”. As to `COc1ccc(C(=O)COC(=O)c2cccc(-n3cnnn3)c2)c(OC)c1`, the “activation (light increase)” value is “inactive”.
